Experimental data from patent publication US12521356B2, “Compositions and methods for treating pain, inflammation, infection, malaria, and sepsis” (Duke University, priority 2018, dated 2026).
Read-outs that look alike come from different tables or passages of the source. Blank lines part the entries; values can stand above or below the molecule they belong to.

How the values were obtained:
GPR37 [1] = target: T1, GPR37 (Homo sapiens, UniProt O15354); assay: Ca2+ imaging (Fura-2AM) in HEK293 cells transfected with human GPR37 cDNA; assay type: cell-based; details: for effect on NPD1-induced iCa2+ increase: NPD1 30 nM, PTX 1 μg/mL 16 h before, thapsigargin 1 μM 3 min, EGTA 10 mM 3 min; for intracellular Ca2+ (iCa2+) increase: 3 min, GPR37-expressing HEK293 cells
T1 construct: host or cells: HEK293 flip-in cells
T1 sequence (O15354 27-613): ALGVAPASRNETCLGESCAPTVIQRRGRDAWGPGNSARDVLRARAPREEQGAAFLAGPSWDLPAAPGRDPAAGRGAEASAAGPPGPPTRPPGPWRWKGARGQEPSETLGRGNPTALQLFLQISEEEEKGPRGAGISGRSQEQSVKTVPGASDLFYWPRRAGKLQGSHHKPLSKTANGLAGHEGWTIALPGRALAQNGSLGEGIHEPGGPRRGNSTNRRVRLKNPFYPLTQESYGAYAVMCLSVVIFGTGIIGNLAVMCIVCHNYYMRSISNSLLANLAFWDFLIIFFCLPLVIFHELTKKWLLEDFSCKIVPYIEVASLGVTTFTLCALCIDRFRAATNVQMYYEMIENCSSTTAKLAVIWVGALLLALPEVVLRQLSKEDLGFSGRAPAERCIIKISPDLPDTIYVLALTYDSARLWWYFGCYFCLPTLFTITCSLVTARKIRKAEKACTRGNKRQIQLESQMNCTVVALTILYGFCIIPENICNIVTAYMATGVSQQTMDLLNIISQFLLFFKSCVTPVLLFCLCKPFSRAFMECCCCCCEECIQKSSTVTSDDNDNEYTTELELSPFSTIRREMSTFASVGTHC
Method: (§1) HEK cell culture and transfection. HEK293 flip-in cell line was purchased from Duke Cell Culture Facility. Cells were cultured in high glucose (4.5 g/L) Dulbecco's Modified Eagle's Medium containing 10% (v/v) fetal bovine serum (Gibco). Transfection (2 μg cDNA) was performed with Lonza electroporation (Lonza) at 70% confluency and the transfected cells were cultured in the same growth medium for 48 h before use. The hGPR37-V5 pLenti304 plasmids were obtained from DNASU (Tempe, AZ), and hGPR32, hChemR23 and hALX pcDNA3 plasmids were provided by Dr. Serhan from Harvard Medical School, Boston.
(§2) Calcium imaging. HEK 293 cells, with or without transfection of Gpr37, GPR32, ChemR23 or ALX1 cDNA, were loaded with 5 μM Fura-2AM (Invitrogen) for 1 hour and then were resuspended in normal external buffer (140 NaCl, 5 KCl, 2 CaCl2, 2 MgCl2, 10 HEPES, in mM, titrated to pH 7.4 with NaOH) or external Ca^2+-free buffer (140 NaCl, 2 MgCl2, 5 EGTA, 10 HEPES, in mM, titrated to pH 7.4 with NaOH). Peritoneal macrophages, collected from WT and Gpr37 KO mice, were loaded with 5 μM […] (Invitrogen) for 1 hour and then were resuspended in normal external buffer. Images of the HEK 293 cells and macrophages with the excitation wavelength of 340 nm and 380 nm were captured with a cooled Digital CMOS camera (ORCA-Flash 4.0, Hamamatsu Photonics K.K, Japan). The ratio of fluorescence intensity of the two wavelengths in each experiment was analyzed using MetaFluor (Molecular Devices). The Shutter speed and wavelength was controlled by Lambda DG-4 system (Sutter instrument Co., Novato, CA). Values from each of the experiments were normalized to the baseline ratio of 340/380 nm.
In order to investigate how GPR37 regulates intracellular signaling, we conducted Ca^2+ imaging in HEK293 cells that overexpress GPR37. […] Thus, we hypothesized TX14 and SPM may activate the same receptors and elicit similar intracellular responses. We transfected HEK293 cells with human GPR37 cDNA, loaded these cells with Ca^2+ dye Fura-2AM, and stimulated them with TX14 and various SPMs, using ionomycin (2 μM) as a positive control for Ca^2+ influx (FIG. 2A, FIG. 2B, FIG. 2C).

GPR37 [2] = target: T2, GPR37 (Mus musculus, UniProt Q9QY42); assay: Ca2+ imaging (Fluo-4AM) in peritoneal macrophages (pMΦ) from WT and Gpr37−/− mice; assay type: cell-based; details: PTX 1 μg/mL, 16 h; pMΦ
T2 sequence (Q9QY42 27-600): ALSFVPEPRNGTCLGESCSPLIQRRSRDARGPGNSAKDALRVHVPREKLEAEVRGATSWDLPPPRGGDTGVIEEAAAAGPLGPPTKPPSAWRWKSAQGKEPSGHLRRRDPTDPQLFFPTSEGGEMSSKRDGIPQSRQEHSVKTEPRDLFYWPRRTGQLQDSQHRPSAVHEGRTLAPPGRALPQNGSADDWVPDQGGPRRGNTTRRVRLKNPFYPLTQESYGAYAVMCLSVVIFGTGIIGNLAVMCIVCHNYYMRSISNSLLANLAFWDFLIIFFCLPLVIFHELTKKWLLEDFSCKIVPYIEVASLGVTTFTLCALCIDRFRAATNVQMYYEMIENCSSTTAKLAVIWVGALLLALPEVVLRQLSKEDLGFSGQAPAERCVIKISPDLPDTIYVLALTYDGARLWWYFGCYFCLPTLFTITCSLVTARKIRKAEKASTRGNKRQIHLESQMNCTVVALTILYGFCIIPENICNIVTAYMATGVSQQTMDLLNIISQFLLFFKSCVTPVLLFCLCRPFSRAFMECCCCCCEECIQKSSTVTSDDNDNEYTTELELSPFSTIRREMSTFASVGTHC
Method: (§3) Peritoneal macrophage culture. Peritoneal macrophages were collected by peritoneal lavage with 10 ml warm PBS containing of 1 mM EDTA. Cells were incubated in DMEM supplemented with 10% FBS at 37° C. for 2 h in petri dish and washed with PBS to eliminate non-adherent cells. The adherent cells were used as peritoneal macrophages. Peritoneal macrophages were used after 3 days of culture.
as §2
(§4) Next, we conducted GPR37-mediated Ca^2+ imaging in native pMΦ from WT and Gpr37^−/− mice using Fluo-4AM as a Ca^2+ indicator, since this dye works better than Fura-2AM for pMΦ. […] As compared to iCa^2+ increase in GPR37-expressing HEK293 cells, NPD1 trigger a slow-onset but more persistent Ca^2+ response in pMΦ (FIG. 2B and FIG. 2G). A relatively rapid calcium response in HEK293 cells may result from over-expression of GPR37. A sustained iCa^2+ increase in pMΦ may result from the expression of transient receptor potential (TRP) ion channels in these immune cells. It is noteworthy that macrophages express TRPV2 or TRPM2, which are involved in phagocytosis during bacterial infection. […] NPD1-triggered iCa^2+ increase in pMΦ is also Gi-dependent, since PTX blocked this increase (FIG. 2H). For comparison, ATP-evoked iCa^2+ increase was not altered in GPR37-deficient pMΦ (FIG. 2H).

[3] = test system: peritoneal macrophages (pMΦ); assay: Phagocytosis assay with fluorescence-labeled zymosan particles in peritoneal macrophages; assay type: cell-based, mouse
Method: as §3
Phagocytosis assay. The phagocytosis assay was modified from a previously described protocol (Sommer C, and Kress M. NeurosciLett. 2004, 361, 184-187). pHrodo® Red Zymosan Bioparticles (diameter, 3 μm, Thermo scientific, Catalog: P35364) were rinsed and reconstituted in RPMI medium. Particles were centrifuged (1 min at 100 g) onto adherent peritoneal macrophages at a ratio of 10:1 to synchronize binding and internalization. After 30 min incubation at 37° C., non-adherent beads were removed with cold PBS and cells were fixed with 2% formalin. Four optic fields were photographed with epifluorescence microscopy. Quantification of zymosan particles ingested by MΦ was conducted on at least 200 macrophages/condition/well, and triplicates were included for statistical analysis.
We investigated whether iCa^2+ increases would trigger phagocytosis of pathogens such as zymosan by macrophages. Zymosan is a well-studied pathogen and activates TLR2 to trigger inflammation and inflammatory pain in rodents after intraplantar injection. We tested phagocytosis in pMΦ using fluorescence-labeled zymosan particles.

ALX = target: T3, ALX (Homo sapiens, UniProt P25090); assay: Ca2+ imaging (Fura-2AM) in HEK293 cells transfected with ALX cDNA; assay type: cell-based; details: HEK293 cells expressing ALX
T3 construct: host or cells: HEK293 flip-in cells
T3 sequence (P25090 1-351): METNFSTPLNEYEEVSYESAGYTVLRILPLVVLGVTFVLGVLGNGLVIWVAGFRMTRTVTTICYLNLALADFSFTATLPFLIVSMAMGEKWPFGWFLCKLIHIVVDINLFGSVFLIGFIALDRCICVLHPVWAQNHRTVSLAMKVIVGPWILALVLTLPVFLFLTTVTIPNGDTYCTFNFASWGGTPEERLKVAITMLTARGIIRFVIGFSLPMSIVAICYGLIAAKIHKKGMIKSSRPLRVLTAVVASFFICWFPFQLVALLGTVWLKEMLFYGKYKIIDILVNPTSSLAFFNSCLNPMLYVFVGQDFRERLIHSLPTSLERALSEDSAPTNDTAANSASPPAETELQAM
Excerpt: (§5) FIG. 10A-FIG. 10C. Characterization of intracellular Ca^2+ changes in HEK293 cells expressing ChemR23, GPR32, and ALX. Ca^2+ imaging with Fura-2AM indicator showing iCa^2+ levels in HEK293 cells transfected with ChemR23 (FIG. 10A), GPR32 (FIG. 10B), and ALX (FIG. 10C) cDNAs. Note that NPD1 fails to elicit iCa^2+ increase in HEK293 cells expressing ChemR23, GPR32, and ALX. […] ATP is included as a positive control. *P<0.05, compared with baseline n=44˜97 cells from 3 cultures. All the data are expressed as mean±s.e.m.
as §1, §2
Several SPM receptors have been identified such as ChemR23 for RvE1, GPR32 for RvD1, and ALX for lipoxin A. We transfected human cDNAs of ChemR23, GPR32, and ALX in HEK293 cells and checked Ca^2+ responses following the treatment of each SPM.

GPR32 = target: T4, GPR32 (Homo sapiens, UniProt O75388); assay: Ca2+ imaging (Fura-2AM) in HEK293 cells transfected with GPR32 cDNA; assay type: cell-based; details: 1 μM; HEK293 cells expressing GPR32
T4 construct: host or cells: HEK293 flip-in cells
T4 sequence (O75388 whole entry): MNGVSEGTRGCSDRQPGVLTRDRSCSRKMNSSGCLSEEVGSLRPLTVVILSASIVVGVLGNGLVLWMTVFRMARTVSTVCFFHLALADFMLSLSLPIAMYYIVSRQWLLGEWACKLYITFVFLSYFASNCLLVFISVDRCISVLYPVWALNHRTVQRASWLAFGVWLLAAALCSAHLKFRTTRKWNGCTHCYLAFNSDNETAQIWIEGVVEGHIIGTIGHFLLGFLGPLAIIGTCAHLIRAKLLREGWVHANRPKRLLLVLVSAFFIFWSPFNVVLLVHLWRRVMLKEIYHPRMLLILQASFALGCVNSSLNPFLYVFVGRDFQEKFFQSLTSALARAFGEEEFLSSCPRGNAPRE
Excerpt: as §5, §1
as §2, with “Values from each of the experiments were normalized to the baseline ratio of 340/380 nm.” left out

ChemR23 = target: T5, ChemR23 (Homo sapiens, UniProt Q99788); assay: Ca2+ imaging (Fura-2AM) in HEK293 cells transfected with ChemR23 cDNA; assay type: cell-based; details: 1 μM; HEK293 cells expressing ChemR23
T5 construct: host or cells: HEK293 flip-in cells
T5 sequence (Q99788 1-373): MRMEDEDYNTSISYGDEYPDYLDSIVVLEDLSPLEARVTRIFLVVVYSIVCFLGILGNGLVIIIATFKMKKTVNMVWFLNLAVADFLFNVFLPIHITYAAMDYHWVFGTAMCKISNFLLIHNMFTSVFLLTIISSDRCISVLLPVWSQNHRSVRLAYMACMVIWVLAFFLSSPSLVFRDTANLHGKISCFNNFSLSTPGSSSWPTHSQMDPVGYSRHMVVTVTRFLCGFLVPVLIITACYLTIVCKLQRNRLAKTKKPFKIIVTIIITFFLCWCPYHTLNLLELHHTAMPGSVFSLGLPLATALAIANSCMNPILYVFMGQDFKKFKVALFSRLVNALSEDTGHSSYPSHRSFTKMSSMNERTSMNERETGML
Excerpt: as §5, §1
as §2, with “Values from each of the experiments were normalized to the baseline ratio of 340/380 nm.” left out

GPR37 [4] = assay: Ca2+ imaging (Fluo-4AM) in peritoneal macrophages (pMΦ) from WT and Gpr37−/− mice; assay type: cell-based, mouse; details: GPR37-deficient pMΦ vs WT
Method: as §3, §2, §4

[5] = LY294002 50 μM, U0126 10 μM, PTX 1 μg/mL, BAPTA-AM 10 μM

Molecule: pertussis toxin
- effect on NPD1-induced iCa2+ increase (GPR37 [1]): completely blocked
- effect on NPD1-triggered iCa2+ increase (GPR37 [2]): blocked
- effect on NPD1-induced phagocytosis [3, 5]: inhibited

- Ca2+ response (ALX; 100 nM): fail to evoke Ca^2+ responses
Molecule: Annexin 1: SPM ligand for ALX, from Anaspec (AMVSEFLKQAWFIENEEQEYVQTVK)

Molecule: O=C(O)CN(CCOCCOCCN(CC(=O)O)CC(=O)O)CC(=O)O [EGTA]
- effect on NPD1-induced iCa2+ increase (GPR37 [1]): inhibited

Molecule: C/C=C(/C)C(=O)O[C@H]1C(C)=C2[C@H]([C@@H]1OC(=O)CCCCCCC)[C@@](C)(OC(C)=O)C[C@H](OC(=O)CCC)[C@@]1(O)[C@H]2OC(=O)[C@@]1(C)O [thapsigargin]
- effect on NPD1-induced iCa2+ increase (GPR37 [1]): inhibited

- iCa2+ increase / Ca2+ response (ALX): failed to evoke Ca^2+ responses
- intracellular Ca2+ (iCa2+) increase (GPR37 [1]; 100 nM): failed to increase iCa^2+
Molecule: CCCCC[C@H](O)/C=C/C=C\C=C\C=C\[C@@H](O)[C@@H](O)CCCC(=O)O [lipoxin A1]

- Ca2+ response (GPR32): fail to evoke Ca^2+ responses
- Ca2+ response (ALX; 1 μM): fail to evoke Ca^2+ responses
- Ca2+ response (ChemR23): fail to evoke Ca^2+ responses
Molecule: CC/C=C\C/C=C\C/C=C\C/C=C\C/C=C\CCCC(=O)O [EPA]
- intracellular Ca2+ (iCa2+) increase (GPR37 [1]; 1 μM): Neither did the precursors of these SPMs (DHA and EPA), at a much higher concentration (1 μM), evoked calcium responses

Molecule: Nc1ncnc2c1ncn2[C@@H]1O[C@H](COP(=O)(O)OP(=O)(O)OP(=O)(O)O)[C@@H](O)[C@H]1O [ATP]
- ATP-evoked iCa2+ increase (GPR37 [4]): not altered

Molecule: N#CC(=C(/N)Sc1ccccc1N)/C(C#N)=C(\N)Sc1ccccc1N [U0126]
- effect on NPD1-induced phagocytosis [3]: inhibited

- intracellular Ca2+ (iCa2+) increase (GPR37 [1]; 100 nM): failed to increase iCa^2+
Molecule: CC/C=C\C[C@H](O)[C@H](O)/C=C/C=C/C=C\C=C\[C@@H](O)C/C=C\CCC(=O)O [RvD2]

Molecule: C[C@H](CCC(=O)O)C[C@H](C)C[C@H](C)C(=O)/C=C(\O)[C@H](C)C[C@H](C)C/C=C/[C@@H](C)[C@@H](O)[C@@H](C)[C@@H](O)C[C@@H]1CC[C@@](C)([C@H]2CC[C@@](C)([C@@H](C)O)O2)O1 [ionomycin]
- phagocytosis ([3]; 2 μM, both WT and Gpr37 KO mice): markedly increased phagocytosis

- effect on NPD1-induced iCa2+ increase (GPR37 [1]): inhibited
Molecule: CC(=O)OCOC(=O)CN(CC(=O)OCOC(C)=O)c1ccccc1OCCOc1ccccc1N(CC(=O)OCOC(C)=O)CC(=O)OCOC(C)=O [BAPTA-AM]
- effect on baseline phagocytosis ([3]; BAPTA-AM 10 μM): blocked
- effect on NPD1-induced phagocytosis [3, 5]: blocked
